Laboratory results taken from US11591292B2, “Preparation of cationic surfactants” (Saudi Arabian Oil Company, priority 2020, dated 2023).

Columns and labels:
Assay type in all cases: physicochemical
[1] = Critical micelle concentration (CMC) in seawater
Text: (§1) The properties of the surfactants in seawater including compatibility, critical micelle concentration (CMC) and the interfacial tension were investigated.

[2] = Interfacial tension (IFT) of surfactants in seawater; settings: for IFT 500 mg/L: surfactant 500 mg/L; for IFT 1000 mg/L: surfactant 1000 mg/L; for IFT 2000 mg/L: surfactant 2000 mg/L
Text: as §1

[3] = Compatibility of surfactants in seawater; design: key: A = clear; B = phase separation; settings: in seawater (total salinity 57,670 ppm)
Text: as §1

Row | Structure (SMILES) | CMC [1] [mol/L] | IFT 500 mg/L [2] | IFT 1000 mg/L [2] | IFT 2000 mg/L [2] | Compatibility 25° C. [3] | Compatibility 95° C. [3]
1 | CCCCCCCC/C=C\CCCCCCCCCCCC(=O)NCCC[N+](C)(C)CC(O)CO.[Cl-] (stereo not drawn) [C22APDAC, Erucyl amidopropyl-2,3-dihydroxypropyl ammonium chloride] | 9.58e-06 | 2.11 × 10^−4 mN/m | 1.21 × 10^−4 mN/m | 1.1 × 10^−3 mN/m | A | A
2 | CCCCCCCC/C=C\CCCCCCCCCCCC(=O)NCCC[N+](C)(C)CC(O)COC(C)=O.[Cl-] (stereo not drawn) [C22APHAAC, erucyl amidopropyl-2-hydroxy-3-acetoxypropyl ammonium chloride] | 1.09e-05 | 1.11 mN/m | 4.83 × 10^−3 mN/m | 2.37 × 10^−3 mN/m | A | B
3 | CCCCCCCC/C=C\CCCCCCCCCCCC(=O)NCCC[N+](C)(C)CC(O)COC(=O)C(F)(F)F.[Cl-] (stereo not drawn) [C22APHFAC, Erucyl amidopropyl-2-hydroxy-3-(2,2,2 trifluoroacetoxy) propyl ammonium chloride] | 1.08e-05 | 0.31 mN/m | 1.87 × 10^−2 mN/m | 7.12 × 10^−3 mN/m | A | B
4 | CCCCCCCC/C=C\CCCCCCCCCCCC(=O)NCCC[N+](C)(C)CC(O)COC(=O)CC.[Cl-] (stereo not drawn) [C22APHPAC, Erucyl amidopropyl-2-hydroxy-3-propoionyloxy propyl ammonium chloride] | 1.25e-05 | 5.7 × 10^−2 mN/m | 7 × 10^−3 mN/m | 4.2 × 10^−2 mN/m | A | B
